# Source: ChEMBL document CHEMBL1144479, “Synthesis and antimicrobial studies on novel chloro-fluorine containing hydroxy pyrazolines” (2007)
# How the values were obtained:
# Escherichia coli = experiment: microbe, parasite or virus in culture; format: functional, ATCC 25922; details: for MIC: Escherichia coli, ATCC 25922, 24 h; on IZ: test concentration or dose not given here
# Candida albicans = experiment: Antifungal activity against Candida albicans NCIM no. 300 after 3 to 4 days by serial plate dilution method; format: functional; details: for MIC: Candida albicans
# Streptococcus pyogenes = experiment: Antibacterial activity against Streptococcus pyogenes after 24 hrs by disc diffusion method; format: functional; details: for MIC: Streptococcus pyogenes, 24 h
# Staphylococcus aureus = experiment: microbe, parasite or virus in culture; format: functional, ATCC 25923; details: for MIC: Staphylococcus aureus, ATCC 25923, 24 h; on IZ: test concentration or dose not given here
# Trichophyton benhamiae = experiment: Antifungal activity against Trichophyton mentagrophytes after 3 to 4 days by serial plate dilution method; format: functional, Arthroderma benhamiae; details: for MIC: Trichophyton benhamiae; on IZ: test concentration or dose not given here
# Aspergillus flavus = experiment: Antifungal activity against Aspergillus flavus NCIM no. 524 after 3 to 4 days by serial plate dilution method; format: functional; details: for MIC: Aspergillus flavus; on IZ: test concentration or dose not given here
# Klebsiella pneumoniae = experiment: Antibacterial activity against Klebsiella pneumoniae after 24 hrs by disc diffusion method; format: functional; details: for MIC: Klebsiella pneumoniae, 24 h; on IZ: test concentration or dose not given here
# Talaromyces marneffei = experiment: Antifungal activity against Penicillium marneffei after 3 to 4 days by serial plate dilution method; format: functional; details: for MIC: Talaromyces marneffei; on IZ: test concentration or dose not given here
# Aspergillus fumigatus = experiment: Antifungal activity against Aspergillus fumigatus NCIM no. 902 after 3 to 4 days by serial plate dilution method; format: functional; details: for MIC: Aspergillus fumigatus; on IZ: test concentration or dose not given here
# Pseudomonas aeruginosa = experiment: microbe, parasite or virus in culture; format: functional, ATCC 27853; details: for MIC: Pseudomonas aeruginosa, ATCC 27853, 24 h; on IZ: test concentration or dose not given here
Structure (SMILES),inhibition zone (IZ) (Escherichia coli),MIC (Escherichia coli),inhibition zone (IZ) (Candida albicans),MIC (Candida albicans),inhibition zone (IZ) (Streptococcus pyogenes),MIC (Streptococcus pyogenes),inhibition zone (IZ) (Staphylococcus aureus),MIC (Staphylococcus aureus),inhibition zone (IZ) (Trichophyton benhamiae),MIC (Trichophyton benhamiae),inhibition zone (IZ) (Aspergillus flavus),MIC (Aspergillus flavus),inhibition zone (IZ) (Klebsiella pneumoniae),MIC (Klebsiella pneumoniae),inhibition zone (IZ) (Talaromyces marneffei),MIC (Talaromyces marneffei),inhibition zone (IZ) (Aspergillus fumigatus),MIC (Aspergillus fumigatus),inhibition zone (IZ) (Pseudomonas aeruginosa),MIC (Pseudomonas aeruginosa)
Cc1ccc(OCC(=O)N2N=C(c3ccc(Cl)cc3)CC2(O)c2cc(F)c(Cl)cc2Cl)cc1 (configuration not stated),17 mm,12.5 µg/mL,19 mm,12.5 µg/mL,18 mm,12.5 µg/mL,19 mm,6.25 µg/mL,20 mm,6.25 µg/mL,15 mm,12.5 µg/mL,18 mm,6.25 µg/mL,17 mm,6.25 µg/mL,19 mm,6.25 µg/mL,24 mm,6.25 µg/mL
COc1ccc(C2=NN(C(=O)COc3ccc(C)cc3)C(O)(c3cc(F)c(Cl)cc3Cl)C2)cc1 (configuration not stated),,> 100 µg/mL,,> 100 µg/mL,,> 100 µg/mL,,> 100 µg/mL,10 mm,25 µg/mL,,> 100 µg/mL,,> 100 µg/mL,12 mm,12.5 µg/mL,12 mm,12.5 µg/mL,10 mm,25 µg/mL
O=C(COc1ccc(Cl)cc1Cl)N1N=C(c2ccc(Cl)cc2Cl)CC1(O)c1cc(F)c(Cl)cc1Cl (configuration not stated),17 mm,12.5 µg/mL,,> 100 µg/mL,,> 100 µg/mL,,> 100 µg/mL,10 mm,25 µg/mL,12 mm,25 µg/mL,,> 100 µg/mL,,> 100 µg/mL,,> 100 µg/mL,10 mm,25 µg/mL
O=C(COc1ccc(Cl)cc1Cl)N1N=C(c2ccc(Cl)cc2)CC1(O)c1cc(F)c(Cl)cc1Cl (configuration not stated),10 mm,25 µg/mL,,> 100 µg/mL,,> 100 µg/mL,,> 100 µg/mL,12 mm,12.5 µg/mL,10 mm,25 µg/mL,,6.25 µg/mL,,> 100 µg/mL,,> 100 µg/mL,23 mm,6.25 µg/mL
Cc1ccc(OCC(=O)N2N=C(c3ccccc3)CC2(O)c2cc(F)c(Cl)cc2Cl)cc1 (configuration not stated),15 mm,12.5 µg/mL,15 mm,12.5 µg/mL,17 mm,12.5 µg/mL,17 mm,6.25 µg/mL,10 mm,25 µg/mL,11 mm,25 µg/mL,18 mm,6.25 µg/mL,12 mm,12.5 µg/mL,11 mm,12.5 µg/mL,18 mm,6.25 µg/mL
O=C(COc1ccc(Cl)cc1Cl)N1N=C(c2ccccc2)CC1(O)c1cc(F)c(Cl)cc1Cl (configuration not stated),17 mm,12.5 µg/mL,10 mm,25 µg/mL,15 mm,12.5 µg/mL,15 mm,6.25 µg/mL,11 mm,25 µg/mL,15 mm,12.5 µg/mL,16 mm,6.25 µg/mL,15 mm,6.25 µg/mL,13 mm,12.5 µg/mL,19 mm,6.25 µg/mL
O=C(COc1ccc(Cl)cc1)N1N=C(c2ccccc2)CC1(O)c1cc(F)c(Cl)cc1Cl (configuration not stated),,> 100 µg/mL,,> 100 µg/mL,,> 100 µg/mL,14 mm,12.5 µg/mL,7 mm,25 µg/mL,9 mm,25 µg/mL,10 mm,25 µg/mL,10 mm,25 µg/mL,14 mm,12.5 µg/mL,,> 100 µg/mL
OC(Cn1cncn1)(Cn1cncn1)c1ccc(F)cc1F [FLUCONAZOLE],,,20 mm,6.25 µg/mL,,,,,20 mm,6.25 µg/mL,18 mm,12.5 µg/mL,,,21 mm,6.25 µg/mL,22 mm,6.25 µg/mL,,
COc1ccc(C2=NN(C(=O)COc3ccc(C)cc3)C(O)(c3cc(F)c(Cl)cc3Cl)C2)cc1OC (configuration not stated),16 mm,12.5 µg/mL,,> 100 µg/mL,,> 100 µg/mL,,> 100 µg/mL,23 mm,6.25 µg/mL,10 mm,25 µg/mL,,> 100 µg/mL,,> 100 µg/mL,,> 100 µg/mL,23 mm,6.25 µg/mL
